Columns and labels:
canine IGF-IR = test: Species crossreactivity by immunoprecipitation/Western blot; assay type: binding; settings: immunoprecipitation, antibody 1 μg/ml
Description: (§1) To perform immunoprecipitation experiments, we plated cells in DMEM high glucose media supplemented with L-glutamine (0.29 mg/ml), 10% heat-inactivated FBS, and 500 μg/ml each of geneticin, penicillin and streptomycin to 50% confluence in T25 flasks. We then added 100 μl of an antibody of the invention in Hank's buffered saline solution (HBSS; Gibco BRL) at a concentration of 1 μg/ml. We incubated the plates for 30 minutes at 37° C. in an incubator and then stimulated the cells with IGF-I at 100 ng/ml for 10 minutes at room temperature. We lysed the cells in RIPA buffer (Harlow and Lane, supra) and immunoprecipitated IGF-IR with 2 μg of pan-specific SC-713 anti-IGF-IR antibody (Santa Cruz) plus protein A agarose beads for 1 hour at 4° C. We pelleted the beads and wash three times with PBS/T (PBS+0.1% Tween-20) and then boiled the beads in 40 μl Laemmli buffer containing 5% βME.
(§2) The samples prepared as described above were then analyzed by Western blot. We loaded 12 μl of each sample per lane on 4-10% gradient Novex™ gels run with 1×MES buffer (Novex™). Gels were run at 150V for 1 hour or at 200V for approximately 30 minutes. We then transferred the gel to a membrane in Novex™ transfer buffer with 10% methanol either overnight at 100 mA or for 1-1.5 hours at 250 mA. We then allowed the membrane to dry completely and blocked at room temperature with TBS (Tris-buffered saline pH 8.0) containing Superblock (Pierce Chemical Co.). We added the IGF-IR blotting antibody SC713 (Santa Cruz) to detect immunoprecipitated IGF-IR.

Rhesus IGF-IR = test: as above; assay type: binding; settings: immunoprecipitation, antibody 1 μg/ml
Description: as §1, §2

IGF-IR from the marmoset = test: as above; assay type: binding; settings: immunoprecipitation, antibody 1 μg/ml
Description: as §1, §2

guinea pig IGF-IR = test: as above; assay type: binding; settings: immunoprecipitation, antibody 1 μg/ml
Description: as §1, §2

rabbit IGF-IR = test: as above; assay type: binding; settings: immunoprecipitation, antibody 1 μg/ml
Description: as §1, §2

MCF-7 tumors = test: Growth inhibition of breast cancer cell tumors; assay type: in vivo, nude mice
Description: Nude mice as described in Example VIII were implanted with biodegradable estrogen pellets (0.72 mg 17-β-estradiol/pellet, 60 day release; Innovative Research of America). After 48 hours, tumors were induced in nude mice essentially as described in Example IX except that MCF-7 cells (ATCC HTB-22) were used. MCF-7 cells are estrogen-dependent human breast carcinoma cells. Mice with established subcutaneous tumors of approximately 250 mm^3 were treated with 50 μg 2.13.2 antibody (i.p.) on days 1, 4, 7, 10, 13, 16, 19 and 22 […] or with 6.25 mg/kg taxol (i.p.) on days 1, 2, 3, 4, 5 (q1dx5), either as single agents or in combination, essentially as described in Example IX.
Mice having established tumors from MCF-7 cells as described immediately above were treated on day 1 with various amounts of 2.13.2 antibody (i.p.) alone or with 3.75 mg/kg adriamycin (i.v.), essentially as described in Example IX.
Mice having established tumors from MCF-7 cells as described immediately above were treated with 250 μg 2.13.2 antibody (i.p.) on days 1, 8, 15 and 23 or with a biodegradable tamoxifen pellet (25 mg/pellet, free base, 60 day release, Innovative Research of America), either as single agents or in combination, essentially as described in Example IX. The tamoxifen pellet was implanted on day 1 after the tumor was established.

[1] = target: T1, extracellular domain of IGF-IR (Homo sapiens, UniProt P08069); test: BIAcore affinity measurement, Protocol 2; assay type: binding; settings: BIAcore 3000; as Fagerstam et al.
T1 construct: Different concentrations of the extracellular domain of IGF-IR were injected on the sensorchip
Description: (§3) We performed affinity measures of purified antibodies by surface plasmon resonance using the BIAcore 3000 instrument, following the manufacturer's protocols.
BIAcore measurements were performed essentially as described by Fagerstam et al. “Detection of antigen-antibody interactions by surface plasmon resonance. Applications to epitope mapping.” J. Mol. Recog. 3: 208-214. (1990).

COS7 IGF-IR = test: Species crossreactivity by immunoprecipitation/Western blot; assay type: binding, old world monkey; settings: immunoprecipitation, antibody 1 μg/ml
Description: as §1
The samples prepared as described above were then analyzed by Western blot. We loaded 12 μl of each sample per lane on 4-10% gradient Novex™ gels run with 1×MES buffer (Novex™). Gels were run at 150V for 1 hour or at 200V for approximately 30 minutes. We then transferred the gel to a membrane in Novex™ transfer buffer with 10% methanol either overnight at 100 mA or for 1-1.5 hours at 250 mA. […]

IGF-IR = IGF-IR (Homo sapiens, UniProt P08069); test: IGF-IR levels in 3T3/IGF-IR tumors by western blot after antibody and/or adriamycin; assay type: in vivo, nude mice; parameters: expressed in transfected cells; host or cells: NIH-3T3 (mouse fibroblasts)
Description: Tumors were induced in nude mice as described in Example IX. Mice with established subcutaneous tumors of approximately 400 mm^3 were treated with a single injection of 250 μg 2.13.2 antibody (i.p.) or with 7.5 mg/kg adriamycin (i.v.), either as single agents or in combination, as described in Example IX. 72 hours after administration of the agents, tumors were extracted as described in Example VIII, and equal amounts of the tumor extracts were subjected to sodium […] polyacrylamide gel electrophoresis (SDS PAGE) and western blot analysis using the anti-IGF-IR antibody SC-713 (Santa Cruz). […] Each lane represents equal amounts of protein from individual tumors from individual mice.

[2] = target: T1, extracellular domain of IGF-IR; test: BIAcore affinity measurement, Protocol 1; assay type: binding; settings: BIAcore 3000; antibody captured on protein-A, IGF-IR extracellular domain injected
Description: as §3
To perform kinetic analyses, protein-A was immobilized on the sensorchip surfaces of the BIAcore. The sensorchip was then used to capture the anti-IGF-IR antibodies of the present invention. Different concentrations of the extracellular domain of IGF-IR were injected on the sensorchip and the binding and dissociation kinetics of the interactions between the anti-IGF-IR antibodies and the extracellular domain of IGF-IR were analyzed. The data were evaluated with global fit Langmuir 1:1, using baseline drift models available on the BIAevaluation software provided by BIAcore.

Kd [1]: 1.53 nM
IGF-IR levels in tumors, adriamycin and antibody together (IGF-IR; 72 hours after 250 μg 2.13.2 i.p. plus 7.5 mg/kg adriamycin i.v.): dramatic decrease in IGF-IR levels
IGF-IR levels in tumors, single agent (IGF-IR; 72 hours after single 250 μg 2.13.2 i.p. or 7.5 mg/kg adriamycin i.v.): some decrease in IGF-IR levels
Kd [2]: 3.5 nM
Substance: 2.13.2: human IgG2κ monoclonal antibody specific for IGF-IR from hybridoma 2.13.2 (ATCC PTA-2788)
binding to canine IGF-IR (canine IGF-IR): not
binding to Rhesus IGF-IR (Rhesus IGF-IR): able to bind
binding to marmoset IGF-IR (IGF-IR from the marmoset): not
binding to guinea pig IGF-IR (guinea pig IGF-IR): not
binding to rabbit IGF-IR (rabbit IGF-IR): not
effect on effectiveness of taxol (MCF-7 tumors; 50 μg i.p. once every three days with 6.25 mg/kg taxol i.p. q1dx5): enhances the effectiveness of taxol
MCF-7 tumor growth (MCF-7 tumors; 50 μg i.p. once every three days, by itself): inhibits human breast cancer cell growth
MCF-7 tumor growth (MCF-7 tumors; 250 μg i.p. on days 1, 8, 15 and 23, by itself): inhibits human breast cancer growth
effect on effectiveness of tamoxifen (MCF-7 tumors; 250 μg i.p. on days 1, 8, 15 and 23 with tamoxifen pellet 25 mg): enhances the effectiveness of tamoxifen
MCF-7 tumor growth (MCF-7 tumors; single treatment i.p. on day 1, by itself): inhibits human breast cancer cell growth
effect on effectiveness of adriamycin (MCF-7 tumors; single treatment on day 1 with 3.75 mg/kg adriamycin i.v.): enhances the effectiveness of adriamycin
binding to COS7 IGF-IR (COS7 IGF-IR): able to bind
